Assay results published in ChEMBL document CHEMBL1201862, “PubChem BioAssay data set” (2004).
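Assay format: 96-well plates, 48-hour exposure. GI50 marks 50% less growth.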 Active and inactive are the calls of the source. No stated cut-off is given here; in the data, active = GI50 up to about 1.1 µM and inactive = higher.

Key:
Test in all cases: DTP human tumour cell line panel, 48 h
SF-268 = test system: SF-268
EKVX = test system: EKVX
NCI/ADR-RES = test system: NCI/ADR-RES
Malme-3M = test system: Malme-3M
LOX IMVI = test system: LOX IMVI
CCRF-CEM = test system: CCRF-CEM
A498 = test system: A498
OVCAR-3 = test system: OVCAR-3
PC-3 = test system: PC-3
OVCAR-5 = test system: OVCAR-5
HCT-116 = test system: HCT-116
UACC-62 = test system: UACC-62
SK-MEL-28 = test system: SK-MEL-28
IGROV-1 = test system: IGROV-1
RPMI-8226 = test system: RPMI-8226
OVCAR-8 = test system: OVCAR-8
K562 = test system: K562
SN12C = test system: SN12C
SNB-19 = test system: SNB-19
UACC-257 = test system: UACC-257

Measured: GI50

CCc1ccccc1NNc1cc(=O)[nH]c(=O)[nH]1
inactive: SF-268 > 10 µM | EKVX 17.5 µM | NCI/ADR-RES 13.3 µM | Malme-3M > 10 µM | LOX IMVI 14 µM | CCRF-CEM 26.5 µM | A498 21.2 µM | OVCAR-3 17.1 µM | PC-3 16.6 µM | OVCAR-5 22 µM | HCT-116 16.7 µM | UACC-62 19.6 µM | SK-MEL-28 18.1 µM | IGROV-1 19.5 µM | RPMI-8226 8.2 µM | OVCAR-8 23.4 µM | K562 27 µM | SN12C 18.8 µM | SNB-19 20.3 µM | UACC-257 18.5 µM

O=C(NCCN1C(=O)CN=C(c2ccc(Cl)cc2)c2cc(Cl)ccc21)OCc1ccccc1
inactive: SF-268 12.4 µM | EKVX 20.7 µM | NCI/ADR-RES 11.9 µM | Malme-3M 16.8 µM | LOX IMVI 17.4 µM | CCRF-CEM 11.7 µM | A498 11.2 µM | OVCAR-3 12.6 µM | PC-3 11.5 µM | OVCAR-5 19.2 µM | HCT-116 11.9 µM | UACC-62 14.8 µM | SK-MEL-28 33.7 µM | IGROV-1 15.3 µM | RPMI-8226 19.7 µM | OVCAR-8 16.3 µM | K562 5.06 µM | SN12C 14.3 µM | SNB-19 18.9 µM | UACC-257 15.3 µM

O=c1n(-c2ccccc2)c(=O)n2c(-c3ccccc3)c(-c3ccccc3)n12
inactive: EKVX > 100 µM | NCI/ADR-RES > 100 µM | Malme-3M > 100 µM | LOX IMVI 72.1 µM | CCRF-CEM 31.4 µM | A498 > 100 µM | OVCAR-3 > 100 µM | PC-3 77.8 µM | OVCAR-5 > 100 µM | HCT-116 37.4 µM | UACC-62 > 100 µM | SK-MEL-28 > 100 µM | IGROV-1 > 100 µM | OVCAR-8 > 100 µM | K562 80.9 µM | SN12C > 100 µM | SNB-19 > 100 µM | UACC-257 > 100 µM

CC(=O)c1c2c(cc3c1CC1(Cc4ccccc4C1=O)C3)CCC2 (centres undefined)
inactive: SF-268 37.9 µM | EKVX 7.06 µM | NCI/ADR-RES 14.5 µM | Malme-3M 16.8 µM | LOX IMVI 19.7 µM | CCRF-CEM 16.8 µM | A498 17.5 µM | OVCAR-3 15.1 µM | PC-3 41.3 µM | OVCAR-5 51.2 µM | HCT-116 16.7 µM | SK-MEL-28 20.9 µM | IGROV-1 16.3 µM | RPMI-8226 5.66 µM | OVCAR-8 18 µM | K562 16.3 µM | SN12C 21.5 µM | SNB-19 45.2 µM | UACC-257 17.9 µM

O=c1[nH]nc(Cc2ccccc2)n1Nc1ccccc1
inactive: SF-268 52 µM | EKVX > 100 µM | NCI/ADR-RES > 100 µM | Malme-3M > 100 µM | LOX IMVI > 100 µM | CCRF-CEM > 100 µM | A498 > 100 µM | OVCAR-3 > 100 µM | PC-3 > 100 µM | OVCAR-5 > 100 µM | HCT-116 > 100 µM | UACC-62 > 100 µM | SK-MEL-28 > 100 µM | IGROV-1 > 100 µM | RPMI-8226 > 100 µM | OVCAR-8 > 100 µM | K562 > 100 µM | SN12C > 100 µM | UACC-257 > 100 µM

COC(=O)C1=C(C)NC(CF)=C(C(=O)OC)C1c1cccc2c(=O)c3ccccc3oc12 (centres undefined)
inactive: SF-268 18.3 µM | EKVX 19.1 µM | NCI/ADR-RES 2.79 µM | Malme-3M 11.2 µM | LOX IMVI 7.4 µM | CCRF-CEM 5.28 µM | A498 5.53 µM | OVCAR-3 4.85 µM | PC-3 2.69 µM | OVCAR-5 > 100 µM | HCT-116 5.2 µM | UACC-62 10.6 µM | SK-MEL-28 16 µM | IGROV-1 2.37 µM | RPMI-8226 69.3 µM | OVCAR-8 19.9 µM | K562 4.06 µM | SN12C 4.63 µM | UACC-257 16.5 µM

C[Si](C)(OCCS(=O)(=O)O)OC(=C1S(=O)(=O)OCCOS1(=O)=O)c1cccc2ccccc12
inactive: SF-268 64 µM | EKVX > 100 µM | NCI/ADR-RES > 100 µM | Malme-3M > 100 µM | LOX IMVI > 100 µM | CCRF-CEM > 100 µM | A498 98.4 µM | OVCAR-3 36.5 µM | PC-3 > 100 µM | OVCAR-5 > 100 µM | HCT-116 > 100 µM | SK-MEL-28 > 100 µM | IGROV-1 72.9 µM | RPMI-8226 > 100 µM | OVCAR-8 > 100 µM | K562 84.5 µM | SN12C > 100 µM | SNB-19 > 100 µM | UACC-257 > 100 µM
